Several values for one entry are separate records, joined by “and”; a condition that tells them apart may be missing. Identical values can stand only once.

For experiment [1], the target named is CNS nicotinic receptors (Rattus norvegicus, UniProt P09483+P12390). The experiment can be described thus: Determination of binding to relevant receptor sites. The note with it: inhibition constants calculated from IC50 values by the method of Cheng et al. As to the method: Determination of Binding to Relevant Receptor Sites
Binding of the compounds to relevant receptor sites was determined in accordance with the techniques described in U.S. Pat. No. 5,597,919 to Dull et al. Inhibition constants (Ki values), reported in nM, were calculated from the IC50 values using the method of Cheng et al., Biochem, Pharmacol. 22:3099 (1973).

In experiment [2] the test system is nicotinic cholinergic receptors that modulate dopamine release. The experiment can be described thus: Determination of dopamine release. The class given is cell-based. The protocol:
Determination of Dopamine Release
Dopamine release was measured using the techniques described in U.S. Pat. No. 5,597,919 to Dull et al. Release is expressed as a percentage of release obtained with a concentration of (S)-(−)-nicotine resulting in maximal effects. Reported EC50 values are expressed in nM, and Emax values represent the amount released relative to (S)-(−)-nicotine on a percentage basis.

In experiment [3] the test system is Rat brain synaptosomes. The experiment can be described thus: Neurotransmitter release from brain synaptosomes. It is filed as cell-based. Conditions: 10 M of ligand, percentage of release with 10 M (S)-(-)-nicotine or 300 MTMA. As to the method: Neurotransmitter Release from Brain Synaotosomes
Neurotransmitter release was measured using techniques similar to those previously published (Bencherif M, et al.:. JPET 279: 1413-1421, 1996).
Rat brain synaptosomes were prepared as follows: Female Sprague Dawley rats (100-200 g) were killed by decapitation after anesthesia with 70% CO2. Brains are dissected, and hippocampus, striatum, and thalamus isolated, and homogenized in 0.32 M sucrose containing 5 mM HEPES pH 7.4 using a glass/glass homogenizer. The tissue was then centrifuged for 1000×g for 10 minutes and the pellet discarded. The supernatant was centrifuged at 12000×g for 20 minutes. The resultant pellet was re-suspended in perfusion buffer (128 mM NaCl, 1.2 mM KH2PO4, 2.4 mM KCl, 3.2 mM CaCl2, 1.2 mM MgSO4, 25 mM HEPES, 1 mM Ascorbic acid, 0.01 mM pargyline HCl and 10 mM glucose pH 7.4) and centrifuged for 15 minutes at 25000×g. The final pellet was resuspended in perfusion buffer and placed in a water bath (37° C.) for 10 minutes. Radiolabeled neurotransmitter is added (30 L ^3H DA, 20 L ^3H NE, 10 L ^3H glutamate) to achieve a final concentration of 100 nM, vortexed and placed in a water bath for additional 10 minutes. Tissue-loaded filters is placed onto 11-mm diameter Gelman A/E filters on an open-air support. After a 10-minute wash period, fractions are collected to establish the basal release and agonist applied in the perfusion stream. Further fractions were collected after agonist application to re-establish the baseline. The perfusate was collected directly into scintillation vials and released radioactivity was quantified using conventional liquid scintillation techniques. Release of neurotransmitter was determined in the presence of […] of various ligands and was expressed as a percentage of release obtained with a concentration of 10 M (S)-(−)-nicotine or 300 MTMA resulting in maximal effects.

The target in experiment [4] is nicotinic receptors. Description: Determination of rubidium ion release (rubidium ion flux assay). The class given is cell-based. As to the method: Determination of Rubidium Ion Release
Rubidium release was measured using the techniques described in Bencherif et al., JPET, 279: 1413-1421 (1996). Reported EC50 values are expressed in nM, and Emax values represent the amount of rubidium ion released relative to 300 uM tetramethylammonium ion, on a percentage basis.

The target of experiment [5] is T1, muscle-type nicotinic acetylcholine receptors (Homo sapiens, UniProt P02708+P07510+Q07001).
T1 construct: cell preparations expressing muscle-type nicotinic acetylcholine receptors; endogenous in cells
The experiment can be described thus: Determination of interaction with muscle receptors. The note with it: for Emax: read-out: Emax at muscle-type receptors. More on the design: Emax: dose or concentration left out as unconfirmed. The class given is cell-based. The source says: The compounds of the present invention, when employed in effective amounts in accordance with the method of the present invention, lack the ability to elicit activation of nicotinic receptors of human muscle to any significant degree. […] Generally, typical preferred compounds useful in carrying the present invention activate isotopic rubidium ion flux by less than 10 percent, often by less than 5 percent, of that maximally provided by S(−) nicotine.
Determination of Interaction with Muscle Receptors
The determination of the interaction of the compounds with muscle receptors was carried out in accordance with the techniques described in U.S. Pat. No. 5,597,919 to Dull et al. The maximal activation for individual compounds (Emax) was determined as a percentage of the maximal activation induced by (S)-(−)-nicotine. Reported Emax values represent the amount released relative to (S)-(−)-nicotine on a percentage basis.

Experiment [6] concerns ganglionic-type nicotinic acetylcholine receptors. Description: Determination of interaction with ganglion receptors. It is filed as cell-based. Conditions: at a concentration of 100 uM; relative to (S)-(-)-nicotine. The text has this:
By this is meant that a particular dose of compound resulting in prevention and/or treatment of a CNS disorder, is essentially ineffective in eliciting activation of certain ganglionic-type nicotinic receptors. […] As such, such compounds have poor ability to cause isotopic rubidium ion flux through nicotinic receptors in cell preparations derived from the adrenal gland. Generally, typical preferred compounds useful in carrying out the present invention activate isotopic rubidium ion flux by less than 10 percent, often by less than 5 percent, of that maximally provided by S(−) nicotine.
Determination of Interaction with Ganglion Receptors
The determination of the interaction of the compounds with ganglionic receptors was carried out in accordance with the techniques described in U.S. Pat. No. 5,597,919 to Dull et al. The maximal activation for individual compounds (Emax) was determined as a percentage of the maximal activation induced by (S)-(−)-nicotine. Reported Emax values represent the amount released relative to (S)-(−)-nicotine on a percentage basis.

Setting [7] is: amount released relative to (S)-(-)-nicotine.
[8] abbreviates: rubidium ion released relative to 300 uM tetramethylammonium ion.
The mark [9] stands for this setting: at a concentration of 100 uM, relative to (S)-(-)-nicotine.

T1 sequence (P02708 21-457): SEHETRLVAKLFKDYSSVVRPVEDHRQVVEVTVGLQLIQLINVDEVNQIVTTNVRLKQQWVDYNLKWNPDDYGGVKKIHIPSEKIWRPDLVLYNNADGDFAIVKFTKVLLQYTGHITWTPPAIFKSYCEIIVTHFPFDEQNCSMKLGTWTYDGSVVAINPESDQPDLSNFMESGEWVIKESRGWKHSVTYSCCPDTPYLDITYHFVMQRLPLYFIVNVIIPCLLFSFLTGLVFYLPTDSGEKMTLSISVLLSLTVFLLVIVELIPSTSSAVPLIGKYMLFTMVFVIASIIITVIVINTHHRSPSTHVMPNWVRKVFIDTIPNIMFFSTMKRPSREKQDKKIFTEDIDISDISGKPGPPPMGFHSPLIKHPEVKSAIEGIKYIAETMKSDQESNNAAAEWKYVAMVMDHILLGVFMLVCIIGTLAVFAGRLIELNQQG
T1 sequence (P11230 24-501 partner): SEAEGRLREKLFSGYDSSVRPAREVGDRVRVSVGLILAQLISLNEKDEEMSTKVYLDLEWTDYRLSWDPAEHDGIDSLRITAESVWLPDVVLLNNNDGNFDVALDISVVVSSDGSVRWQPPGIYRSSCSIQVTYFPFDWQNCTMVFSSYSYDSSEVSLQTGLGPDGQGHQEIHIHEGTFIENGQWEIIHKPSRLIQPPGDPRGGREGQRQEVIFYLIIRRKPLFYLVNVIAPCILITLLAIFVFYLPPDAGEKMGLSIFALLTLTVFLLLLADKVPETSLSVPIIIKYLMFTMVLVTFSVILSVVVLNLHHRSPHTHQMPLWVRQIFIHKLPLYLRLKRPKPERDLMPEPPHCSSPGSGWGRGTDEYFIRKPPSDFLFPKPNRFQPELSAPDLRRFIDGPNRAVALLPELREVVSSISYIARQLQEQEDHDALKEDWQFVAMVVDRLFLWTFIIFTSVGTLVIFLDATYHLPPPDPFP
T1 sequence (Q07001 22-517): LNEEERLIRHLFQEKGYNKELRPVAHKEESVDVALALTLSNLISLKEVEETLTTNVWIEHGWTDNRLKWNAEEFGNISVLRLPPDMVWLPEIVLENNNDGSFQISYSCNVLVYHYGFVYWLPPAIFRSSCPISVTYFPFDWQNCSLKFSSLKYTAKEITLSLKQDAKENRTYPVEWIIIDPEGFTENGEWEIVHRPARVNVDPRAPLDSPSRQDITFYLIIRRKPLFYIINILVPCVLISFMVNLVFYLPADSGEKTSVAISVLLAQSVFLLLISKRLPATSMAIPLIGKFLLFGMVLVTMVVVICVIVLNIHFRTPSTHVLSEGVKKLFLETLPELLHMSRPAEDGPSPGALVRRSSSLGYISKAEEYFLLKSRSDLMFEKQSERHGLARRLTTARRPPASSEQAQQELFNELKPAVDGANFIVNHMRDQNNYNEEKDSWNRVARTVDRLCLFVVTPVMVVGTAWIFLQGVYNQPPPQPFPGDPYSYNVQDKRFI
T1 sequence (P07510 23-517): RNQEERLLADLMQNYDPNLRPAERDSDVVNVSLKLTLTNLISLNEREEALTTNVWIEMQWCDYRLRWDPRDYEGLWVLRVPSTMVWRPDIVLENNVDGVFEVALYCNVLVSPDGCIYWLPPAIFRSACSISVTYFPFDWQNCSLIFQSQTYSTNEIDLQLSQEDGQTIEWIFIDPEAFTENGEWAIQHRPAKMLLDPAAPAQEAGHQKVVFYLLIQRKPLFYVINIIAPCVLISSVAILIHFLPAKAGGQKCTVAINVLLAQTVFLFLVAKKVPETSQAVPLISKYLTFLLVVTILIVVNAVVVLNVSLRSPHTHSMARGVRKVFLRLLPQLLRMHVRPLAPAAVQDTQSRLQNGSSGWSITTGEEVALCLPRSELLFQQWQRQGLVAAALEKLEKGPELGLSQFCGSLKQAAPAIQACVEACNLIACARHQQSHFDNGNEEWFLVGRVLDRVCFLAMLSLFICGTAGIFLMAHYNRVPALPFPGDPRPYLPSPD
CNS nicotinic receptors, sequence (P09483 31-630): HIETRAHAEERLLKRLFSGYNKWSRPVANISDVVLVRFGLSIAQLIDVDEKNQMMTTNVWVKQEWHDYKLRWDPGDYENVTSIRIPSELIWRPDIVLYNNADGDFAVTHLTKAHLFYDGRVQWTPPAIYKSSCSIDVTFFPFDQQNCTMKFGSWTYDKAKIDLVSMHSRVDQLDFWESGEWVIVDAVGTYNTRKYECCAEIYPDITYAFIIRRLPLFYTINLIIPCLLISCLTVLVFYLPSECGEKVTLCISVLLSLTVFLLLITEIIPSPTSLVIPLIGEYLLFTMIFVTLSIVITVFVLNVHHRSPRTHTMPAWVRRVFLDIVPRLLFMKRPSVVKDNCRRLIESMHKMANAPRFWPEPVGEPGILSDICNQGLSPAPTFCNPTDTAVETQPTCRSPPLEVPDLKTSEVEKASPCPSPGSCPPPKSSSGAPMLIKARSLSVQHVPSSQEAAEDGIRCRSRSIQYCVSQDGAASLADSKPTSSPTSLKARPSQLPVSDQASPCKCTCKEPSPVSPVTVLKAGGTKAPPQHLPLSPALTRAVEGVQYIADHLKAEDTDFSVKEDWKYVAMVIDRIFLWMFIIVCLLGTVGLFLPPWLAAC
CNS nicotinic receptors, sequence (P12390 25-500): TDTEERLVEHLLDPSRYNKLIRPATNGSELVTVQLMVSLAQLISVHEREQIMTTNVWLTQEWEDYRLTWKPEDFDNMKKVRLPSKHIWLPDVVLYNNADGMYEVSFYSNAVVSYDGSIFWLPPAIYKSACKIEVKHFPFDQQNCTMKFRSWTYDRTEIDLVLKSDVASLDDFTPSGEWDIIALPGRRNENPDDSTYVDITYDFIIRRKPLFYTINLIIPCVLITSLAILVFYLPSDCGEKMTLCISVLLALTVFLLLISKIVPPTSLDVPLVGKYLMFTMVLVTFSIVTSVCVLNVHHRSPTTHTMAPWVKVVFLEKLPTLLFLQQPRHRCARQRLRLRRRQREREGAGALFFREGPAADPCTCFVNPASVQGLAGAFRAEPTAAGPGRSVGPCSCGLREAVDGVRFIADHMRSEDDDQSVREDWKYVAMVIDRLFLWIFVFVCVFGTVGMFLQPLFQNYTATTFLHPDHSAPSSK

For `CNCC/C=C/c1cnc(N)c([N+](=O)[O-])c1` [Sample No. 1, (3E)-N-methyl-4-[3-(5-nitro-6-aminopyridin)yl]-3-buten-1-amine], the Ki in experiment [1] is 0.003 µM. Also, the “Emax for dopamine release” value in experiment [2] (setting [7]) worked out at 0%. Moreover, in experiment [3], the “neurotransmitter release Emax” value is 33%. A half-maximal effect in experiment [4] (EC50) was put at 26 µM. For the same molecule, in experiment [4] (setting [8]), the “Emax in the rubidium ion flux assay” value was found to be 22%. Further, in experiment [5] (setting [9]), the “Emax at muscle-type receptors” value is 10% and 11%. In addition, in experiment [6], the “Emax at ganglionic-type receptors” value was 11% and 16%.

`CNCC/C=C/c1cncc(C(=O)NCc2ccccc2)c1` [Sample No. 2, (3E)-N-methyl-N-[3-(5-(N-benzylcarboxamido)pyridin)yl]-3-buten-1-amine]: the concentration for a half-maximal effect (EC50) in experiment [2] came out at 100 µM. Further, the maximum response (Emax) in experiment [2] (setting [7]) was 12%.

Consider `CN[C@@H](C)C/C=C/c1cc(OC(C)C)c[n+]([O-])c1` [Sample No. 5], for which the Emax in experiment [3] was found to be 19%; in experiment [5], 7%. The “Emax at ganglionic-type receptors” value in experiment [6] is on record as 8%.

For `CNCC/C=C/c1cncc(OCC(C)C)c1` [Sample No. 6, (3E)-N-methyl-4-(3-(5-isobutoxypyridin)yl)-3-buten-1-amine hemigalactarate], the EC50 in experiment [2] stood at 15 µM; in experiment [4], 1 µM. Also, the Emax in experiment [2] (setting [7]) came out at 25%; in experiment [4] (setting [8]), 15%; in experiment [5], 6%. For the same molecule, the maximum response (Emax) at ganglionic-type receptors in experiment [6] was found to be 13%.

For `CNC(C)CC=Cc1ccc[n+]([O-])c1` (centres unmarked) [Sample No. 8, (4E)-N-methyl-5-(3-(1-oxopyridin)yl)-4-penten-2-amine], the figures for the Emax in experiment [3] and in experiment [5] were 9% and 0%, respectively. Moreover, the “Emax at ganglionic-type receptors” value in experiment [6] was 8%.

For `CCSc1cncc(/C=C/CCNC)c1` [Sample No. 9, (3E)-N-methyl-4-(3-(5-ethylthiopyridin)yl)-3-buten-1-amine hemigalactarate], the results for the EC50 in experiment [2] and in experiment [4] were 0.875 µM and 0.191 µM, respectively. Besides, the Emax in experiment [2] (setting [7]) was found to be 39%; in experiment [4] (setting [8]), 40%; in experiment [5], 7%. Further, the “Emax at ganglionic-type receptors” value in experiment [6] is reported as 22%.

In the case of `CNC(C)CC=Cc1cncc(C(F)(F)F)c1` (centres unmarked) [Sample No. 10, (4E)-N-methyl-5-(3-(5-trifluoromethylpyridin)yl)-4-penten-2-amine], the Emax in experiment [3] was found to be 50%; in experiment [4] (setting [8]), 0%; in experiment [5], 0%. A half-maximal effect in experiment [4] (EC50) was put at 100 µM. Besides, the “Emax at ganglionic-type receptors” value in experiment [6] stood at 0%.

Consider `CC(N)CC=Cc1cncc(OC(C)C)c1` (centres unmarked) [Sample No. 12, (4E)-5-(3-(5-isopropoxypyridin)yl)-4-penten-2-amine hemigalactarate], for which the Emax in experiment [3] turned out to be 32%. Besides, the Emax at 100 µM in experiment [5] (setting [9]) was found to be 13%. Besides, in experiment [6], the “Emax at ganglionic-type receptors” value worked out at 5%.

In the case of `CNC(C)CC=Cc1cncc(O)c1` (centres unmarked) [Sample No. 13, (4E)-N-methyl-5-(3-(5-hydroxypyridin)yl)-4-penten-2-amine sesquioxalate], the Emax in experiment [3] was 80%; in experiment [5], 21%. Besides, the “Emax at ganglionic-type receptors” value in experiment [6] is listed as 12%.

In general, Ki refers to a measure of affinity in units of concentration, obtained from inhibition or displacement. In general, EC50 refers to the concentration needed to bring the measured effect to its halfway point. As a reminder, the Emax is the size of the effect at its maximum, as opposed to the concentration needed.

Values taken from patent US6455554B1, “Oxopyridinyl pharmaceutical compositions and methods for use” (Targacept, Inc., priority 1999, dated 2002).
